{"source": "patent US20120053128A1", "about": "“Method of inhibiting angiogenesis” (XAVIER UNIVERSITY, priority 2010, published 2012)", "key": {"[1]": {"assay": "MDA-MB-231 cell viability (CellTiter 96 AQuous One)", "assay_type": "cell-based, human", "settings": "human, MDA-MB-231 human breast cancer cells; MDA-MB-231 cells, incubated two days, apoEdp about 6 to about 300 μM; read-out: 50% cytotoxic dose", "description": "(§1) To determine whether apoEdp affects cell survival, cell viability of human umbilical vein endothelial cells (HUVECs) and MDA-MB-231 human breast cancer cells was determined by using CellTiter 96® AQuous One solution cell proliferation kit (Promega, Madison, Wis.).\n(§2) HUVECs were obtained from Lonza (Walkersville, Md.) and were maintained in endothelial cell basal medium (EBM-2) (Lonza, Walkersville, Md.) supplemented with 10% fetal bovine serum (FBS) and growth factors. (bullet kit, Lonza, Walkersville, Md.) HUVECs were used between passages 2-6. Human Breast Cancer cells MDA-MB-231 were obtained from the American Type Tissue Collection and cultured in Dulbecco's Modified Eagle's medium supplemented with 10% fetal bovine serum, 0.1 mg/mL streptomycin and 25 U/mL penicillin.\n(§3) The MDA-MB-231 cells were in 96-well plates at about 5,000 cells per well. The MDA-MB-231 cells were then allowed to adhere to the plate with apoEdp in various concentrations in the range of about 6 μM to about 300 μM. The cells were incubated for two days, and cell numbers were determined using the CellTiter 96® AQuous One Solution cell proliferation kit. (Promega, Madison, Wis.)"}, "[2]": {"tested_on": "MDA-MB-231 human breast cancer cells", "assay": "MDA-MB-231 cell viability (CellTiter 96 AQuous One)", "assay_type": "cell-based", "settings": "MDA-MB-231 cells, apoEdp up to 300 μM", "description": "as §1, §2, §3"}, "[3]": {"tested_on": "VEGF-induced angiogenesis", "assay": "Rabbit corneal micropocket assay of VEGF-induced angiogenesis", "assay_type": "in vivo, New Zealand White Rabbits", "settings": "rabbit eye, 1% apoEdp eye drops 50 μL topically five times per day for five days, versus saline drops", "description": "The effect of apoEdp on angiogenesis in vivo was observed by testing its inhibitory effect on VEGF-induced angiogenesis in a corneal micropocket assay of a rabbit eye model. A corneal micropocket was created with a modified von Graefe cataract knife in each eye of several 2-3 pound New Zealand White Rabbits. A micropellet of 500 μm by 500 μm was prepared which contained 0.4 g of Compritol 888 ATO (Gattefosse) combined with 0.1 g of Squalane oil (Sigma Aldrich) and 20 mg/mL L-α-Phosphatidylcholine. The 20 mg/mL L-α-Phosphatidylcholine contained either saline for the control subjects or 160 ng of VEGF for the test subjects. The right eye of each test subject was implanted with a VEGF-containing pellet and the left eye of each test subject was implanted with a saline-containing pellet. Each of the pellets was positioned about 2 mm from the corneal limbus. […] The area of neovascular response, vessel length and clock hours of new blood vessel formation of each group were all calculated according to the formula, Area (mm^2)=C/12×3.1416[r^2−(r−L)^2] where, C=the number of clock hours at the limbus involved in the neovascular response, L=the length of the longest neovascular pedicle from the limbus onto the anterior cornea, and r=the radius of the cornea."}, "[4]": {"tested_on": "MDA-MB-231 human breast cancer cells xenograft", "assay_type": "in vivo", "settings": "nude mice, about 40 mg/kg/day intralesionally for three consecutive days, versus PBS", "description": "The effect of apoEdp on tumor growth in vivo was observed by testing its inhibitory effect on xenograft tumor growth post-injection in nude mice.\nThe test subjects were female nu/nu mice, aged 8-12 weeks, weighing about 20 g. (Charles River Laboratories, Harlan, Indianapolis, Ind.) The mice were weighed, coded, and divided into experimental groups at random. The mice were subcutaneously injected with about 3×10^6 MDA-MB-231 human breast cancer cells in 100 μL PBS. The cells were injected into the right sides of the dorsal area of the test subjects. The tumor size was allowed to reach about 100 mm^3 which took about ten days.\nFollowing injection of the tumor cells, the subjects were given injections for three consecutive days. About 40 mg/kg/day of apoEdp was injected intralesionally into the test subjects, and about […] of sterile PBS was injected intralesionally into the control subjects.\nIn order to evaluate tumor growth, tumor volume was determined every seven days by measuring the tumor with a digital caliper and calculating tumor volume. Volume was calculated using the formula, V=A×B^2×0.52, where A=longest diameter of the tumor, and B=the shortest diameter of the tumor."}, "[5]": {"tested_on": "Flk-1", "assay": "Western blot, VEGF-induced phosphorylation of Flk-1 in HUVECs", "assay_type": "cell-based, human", "settings": "apoEdp about 6 to about 50 μM for 1 h, VEGF 10 ng/mL ten minutes, concentration dependent", "description": "(§4) The mechanism by which apoEdp inhibits angiogenesis and tumor growth was evaluated using Western Blot Analysis.\n(§5) Confluent HUVECs were grown in EBM-2 containing 1% FBS for twenty-four hours. The medium was then replaced with 1% FBS media in the presence or absence of apoEdp in the range of about 6 μM to about 50 μM. The cells were allowed to grow for one hour; then VEGF was added at a concentration of 10 ng/mL. The cells were then incubated for ten minutes to detect the phosphorylated forms of angiogenic signaling molecules.\n(§6) The cells were lysed, quantified for protein concentration, and separated on 4% to 20% pre-cast SDS-PAGE gels. Western blots were then performed of the control cell lysates and the apoEdp treated cell lysates. The western blots were performed with antibodies against the phosphorylated and non-phosphorylated (control) forms of Flk-1, c-Src, FAK, Erk1/2, Akt and eNOS. (Santa Cruz Biotechnology, Santa Cruz, Calif.)."}, "[6]": {"tested_on": "c-Src", "assay": "Western blot, VEGF-induced phosphorylation of c-Src in HUVECs", "assay_type": "cell-based, human", "settings": "apoEdp about 6 to about 50 μM for 1 h, VEGF 10 ng/mL ten minutes, concentration dependent", "description": "as §4, §5, §6"}, "[7]": {"tested_on": "Akt", "assay": "Western blot, VEGF-induced phosphorylation of Akt in HUVECs", "assay_type": "cell-based, human", "settings": "apoEdp about 6 to about 50 μM for 1 h, VEGF 10 ng/mL ten minutes, concentration dependent", "description": "as §4, §5, §6"}, "[8]": {"tested_on": "eNOS", "assay": "Western blot, VEGF-induced phosphorylation of eNOS in HUVECs", "assay_type": "cell-based, human", "settings": "apoEdp about 6 to about 50 μM for 1 h, VEGF 10 ng/mL ten minutes, concentration dependent", "description": "as §4, §5, §6"}, "[9]": {"tested_on": "FAK", "assay": "Western blot, VEGF-induced phosphorylation of FAK in HUVECs", "assay_type": "cell-based, human", "settings": "apoEdp about 6 to about 50 μM for 1 h, VEGF 10 ng/mL ten minutes, concentration dependent", "description": "as §4, §5, §6"}, "[10]": {"tested_on": "Erk1/2", "assay": "Western blot, VEGF-induced phosphorylation of Erk1/2 in HUVECs", "assay_type": "cell-based, human", "settings": "apoEdp about 6 to about 50 μM for 1 h, VEGF 10 ng/mL ten minutes, concentration dependent", "description": "as §4, §5, §6"}, "[11]": {"settings": "human, human umbilical vein endothelial cells (HUVECs)", "quoted_text": "The HUVECs, as described above, were seeded in 96-well plates at about 10,000 cells per well. The next day, the cells were starved for 18 hours in EBM-2+1% FBS without any growth supplement. The HUVECs were then incubated with apoEdp in various concentrations in the range of about 6 μM to about 300 μM. An hour later, 50 ng/mL of vascular endothelial growth factor (VEGF) was introduced. The cells were incubated for two days, and cell numbers were determined using the CellTiter96 AQuous One Solution cell proliferation kit. (Promega, Madison, Wis.)"}}, "note": "Like-named read-outs stand apart in the source and are kept apart here. Where no end group is shown, it is not given here.", "data": [{"sequence": "LRKLRKRLLLRKLRKRLL [apoEdp]", "values": [{"measurement": "CC50 at 48 h", "setting": "[1]", "value": "> 300", "unit": "µM"}, {"measurement": "effect on cell viability", "setting": "[2]", "value": "no effect on cell viability"}, {"measurement": "VEGF-induced angiogenesis (area of neovascular response)", "setting": "[3]", "value": "significantly inhibited"}, {"measurement": "tumor growth (tumor volume)", "setting": "[4]", "value": "significantly inhibited"}, {"measurement": "VEGF-induced phosphorylation of Flk-1", "setting": "[5]", "value": "significantly inhibited"}, {"measurement": "VEGF-induced phosphorylation of c-Src", "setting": "[6]", "value": "significantly inhibited"}, {"measurement": "VEGF-induced phosphorylation of Akt", "setting": "[7]", "value": "significantly inhibited"}, {"measurement": "VEGF-induced phosphorylation of eNOS", "setting": "[8]", "value": "significantly inhibited"}, {"measurement": "VEGF-induced phosphorylation of FAK", "setting": "[9]", "value": "significantly inhibited"}, {"measurement": "VEGF-induced phosphorylation of Erk1/2", "setting": "[10]", "value": "significantly inhibited"}, {"measurement": "CC50 at 48 h", "setting": "[11]", "value": "~103", "unit": "µM"}]}]}
